Reference: patent US20230055237A1, “COMPOUNDS AND METHODS FOR THE TREATMENT OF CYSTIC FIBROSIS” (Flatley Discovery Lab, LLC, priority 2019, published 2023)

Molecular target: T1, CFTR (Homo sapiens, UniProt P13569, DEL508-508)
T1 construct: Primary CF airway epithelial cells were obtained from the UNC Cystic Fibrosis Tissue Procurement and Cell Culture Core; host or cells: primary CF airway epithelial cells, differentiated at the air-liquid interface
Experiment: Equivalent current assay in primary CF airway epithelial cells (NAUC, combination with 1st site corrector FDL169 or VX-809)
Type: cell-based
Conditions: 37° C., 24 h

[1] = test compound 3 μM in combination with 1st site corrector VX-809 (3 μM)
[2] = test compound 10 μM in combination with 1st site corrector VX-809 (3 μM)
[3] = test compound 1 μM in combination with 1st site corrector FDL169 (3 μM)
[4] = test compound 3 μM in combination with 1st site corrector FDL169 (3 μM)
[5] = test compound 1 μM in combination with 1st site corrector VX-809 (3 μM)
[6] = test compound 10 μM in combination with 1st site corrector FDL169 (3 μM)

T1 sequence (P13569 with tags, fused parts or gaps DEL508-508): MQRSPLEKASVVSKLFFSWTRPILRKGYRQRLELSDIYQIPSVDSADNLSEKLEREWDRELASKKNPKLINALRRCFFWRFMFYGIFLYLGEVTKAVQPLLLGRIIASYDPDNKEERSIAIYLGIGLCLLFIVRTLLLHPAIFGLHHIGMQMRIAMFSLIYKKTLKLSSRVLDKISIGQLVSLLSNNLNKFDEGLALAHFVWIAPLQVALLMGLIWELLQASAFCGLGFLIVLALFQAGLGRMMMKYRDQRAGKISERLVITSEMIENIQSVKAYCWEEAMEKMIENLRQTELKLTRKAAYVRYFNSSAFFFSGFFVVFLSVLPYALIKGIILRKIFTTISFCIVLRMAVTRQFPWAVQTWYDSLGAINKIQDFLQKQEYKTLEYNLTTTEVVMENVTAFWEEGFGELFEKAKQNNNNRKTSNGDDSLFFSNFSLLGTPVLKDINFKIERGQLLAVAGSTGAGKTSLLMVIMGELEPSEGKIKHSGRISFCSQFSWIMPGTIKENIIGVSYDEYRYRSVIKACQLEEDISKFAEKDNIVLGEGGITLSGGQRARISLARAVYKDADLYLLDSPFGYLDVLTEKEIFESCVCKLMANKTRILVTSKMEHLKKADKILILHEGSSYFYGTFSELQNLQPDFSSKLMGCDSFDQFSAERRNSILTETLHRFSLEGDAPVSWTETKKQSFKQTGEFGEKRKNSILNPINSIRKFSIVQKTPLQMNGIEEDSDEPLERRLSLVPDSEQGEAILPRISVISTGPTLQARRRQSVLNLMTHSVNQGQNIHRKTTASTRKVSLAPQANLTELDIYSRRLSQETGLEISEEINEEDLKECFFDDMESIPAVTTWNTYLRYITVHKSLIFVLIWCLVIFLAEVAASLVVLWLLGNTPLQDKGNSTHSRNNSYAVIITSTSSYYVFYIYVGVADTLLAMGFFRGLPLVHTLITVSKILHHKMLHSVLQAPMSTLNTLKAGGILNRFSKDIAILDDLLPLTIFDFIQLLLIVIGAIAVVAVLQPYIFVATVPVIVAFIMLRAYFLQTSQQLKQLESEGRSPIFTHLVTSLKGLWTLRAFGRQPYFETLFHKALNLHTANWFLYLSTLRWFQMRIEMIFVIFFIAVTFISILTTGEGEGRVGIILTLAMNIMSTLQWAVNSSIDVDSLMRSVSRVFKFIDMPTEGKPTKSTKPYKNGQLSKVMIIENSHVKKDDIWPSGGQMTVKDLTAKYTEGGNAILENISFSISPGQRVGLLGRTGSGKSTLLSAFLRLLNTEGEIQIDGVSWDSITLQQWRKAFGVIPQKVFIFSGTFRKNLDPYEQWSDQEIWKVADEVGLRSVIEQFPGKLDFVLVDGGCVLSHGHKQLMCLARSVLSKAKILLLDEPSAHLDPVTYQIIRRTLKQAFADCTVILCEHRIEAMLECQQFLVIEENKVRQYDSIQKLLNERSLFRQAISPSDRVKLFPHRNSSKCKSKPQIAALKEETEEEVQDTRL

| SMILES | Nauc @ 3 μM [1] | Nauc @ 10 μM [2] | Nauc @ 1 μM [3] | Nauc @ 3 μM [4] | further results |
| --- | --- | --- | --- | --- | --- |
| COc1cc(C(F)(F)F)cc(NC(=O)C2C3C[C@](C)(O)CN3C3(C(=O)Nc4c(Cl)cc(Cl)cc43)C2C(=O)O)n1 (stereo partly drawn) [Example 6] | +++ (NAUC “+++” refers to an observed NAUC>170% of positive control) | +++ (NAUC “+++” refers to an observed NAUC>170% of positive control) |  |  |  |
| CN(C(=O)[C@H]1[C@H]2CC(F)(F)CN2C2(C(=O)Nc3c(Cl)cc(Cl)cc32)[C@H]1C(=O)NS(=O)(=O)c1ccccc1)c1cc(Cl)cc(Cl)c1 (mixture of isomers) [Example 230, rel-(1′R,2′S,3R,7a′R)-5,7-dichloro-N1′-(3,5-dichlorophenyl)-6′,6′-difluoro-N1′-methyl-2-oxo-N2′-(phenylsulfonyl)-1′,2′,5′,6′,7′,7a′-hexahydrospiro[indoline-3,3′-pyrrolizine]-1′,2′-dicarboxamide] |  | + (NAUC “+” refers to an observed NAUC <140% of positive control) |  |  |  |
| C[C@]1(OCc2ccccc2)C[C@@H]2[C@H](C(=O)N(CC3CCCC3)c3cc(Cl)cc(Cl)c3)[C@H](C(=O)O)[C@@]3(C(=O)Nc4c(Cl)cc(Cl)cc43)N2C1 [Example 94] |  |  | ++ (NAUC “++” refers to an observed NAUC 170-140% of positive control) | ++ (NAUC “++” refers to an observed NAUC 170-140% of positive control) |  |
| CC(C)(CO)c1cccc(CCNC(=O)[C@H]2[C@H]3CC(F)(F)CN3C3(C(=O)Nc4c(Cl)cc(Cl)cc43)[C@H]2C(=O)O)c1 (stereo partly drawn) [Example 293] |  | + (NAUC “+” refers to an observed NAUC <140% of positive control) |  |  |  |
| CN(O)C(=O)[C@H]1[C@@H](C(=O)N(C)c2cc(Cl)cc(Cl)c2)[C@H]2CC(F)(F)CN2[C@]12C(=O)Nc1c(Cl)cc(Cl)cc12 [Example 260a, (1′R,2′S,3R,7a′R)-5,7-dichloro-N1′-(3,5-dichlorophenyl)-6′,6′-difluoro-N2′-hydroxy-N1′,N2′-dimethyl-2-oxo-1′,2′,5′,6′,7′,7a′-hexahydrospiro[indoline-3,3′-pyrrolizine]-1′,2′-dicarboxamide] | + (NAUC “+” refers to an observed NAUC <140% of positive control) |  |  |  | Nauc @ 1 μM [5]: + (NAUC “+” refers to an observed NAUC <140% of positive control) |
| O=C(Nc1cc(Cl)cc(Cl)c1)C1C2CC(F)(F)CN2C2(C(=O)Nc3c(Cl)cc(Cl)cc32)C1C(=O)NO (single isomer, unassigned) [Example 226a, 5,7-dichloro-N1′-(3,5-dichlorophenyl)-6′,6′-difluoro-N2′-hydroxy-2-oxo-1′,2′,5′,6′,7′,7a′-hexahydrospiro[indoline-3,3′-pyrrolizine]-1′,2′-dicarboxamide] | ++ (NAUC “++” refers to an observed NAUC 170-140% of positive control) | +++ (NAUC “+++” refers to an observed NAUC>170% of positive control) |  |  | Nauc @ 1 μM [5]: ++ (NAUC “++” refers to an observed NAUC 170-140% of positive control) |
| CN(C(=O)[C@H]1[C@H]2CC(F)(F)CN2C2(C(=O)Nc3c(Cl)cc(Cl)cc32)[C@H]1C(=O)O)c1cccc(C(F)(F)F)n1 (stereo partly drawn) [Example 292] | +++ (NAUC “+++” refers to an observed NAUC>170% of positive control) | +++ (NAUC “+++” refers to an observed NAUC>170% of positive control) |  |  | Nauc @ 1 μM [5]: ++ (NAUC “++” refers to an observed NAUC 170-140% of positive control) |
| CN1C(=O)[C@]2(c3cc(Cl)cc(Cl)c31)[C@@H](C(=O)O)[C@@H](C(=O)N(CC(C)(C)C)c1cc(Cl)cc(Cl)c1)[C@H]1CC(F)(F)CN12 [Example 207] |  |  | ++ (NAUC “++” refers to an observed NAUC 170-140% of positive control) | ++ (NAUC “++” refers to an observed NAUC 170-140% of positive control) |  |
| O=C(Nc1cc(Cl)c(OC(F)F)c(Cl)c1)C1C2CC3(CC3)CN2C2(C(=O)Nc3c(Cl)cc(Cl)cc32)C1C(=O)O (stereo not drawn) [Example 12] | +++ (NAUC “+++” refers to an observed NAUC>170% of positive control) | +++ (NAUC “+++” refers to an observed NAUC>170% of positive control) |  |  |  |
| O=C(Nc1cc(Cl)cc(Cl)c1)C1C2CCCN2C2(C(=O)Nc3c(Cl)cc(Cl)cc32)C1C(=O)O (stereo not drawn) [Example 15] | +++ (NAUC “+++” refers to an observed NAUC>170% of positive control) | +++ (NAUC “+++” refers to an observed NAUC>170% of positive control) |  |  |  |
| COc1cc(C(F)(F)F)cc(NC(=O)C2C3CC(F)(F)CN3C3(C(=O)Nc4c(Cl)cc(Cl)cc43)C2C(=O)O)n1 (single isomer, unassigned) [Example 80.7b.2, 5,7-dichloro-6′,6′-difluoro-1′-((6-methoxy-4-(trifluoromethyl)pyridin-2-yl)carbamoyl)-2-oxo-1′,2′,5′,6′,7′,7a′-hexahydrospiro[indoline-3,3′-pyrrolizine]-2′-carboxylic acid] |  | + (NAUC “+” refers to an observed NAUC <140% of positive control) |  |  |  |
| O=C(O)[C@H]1[C@@H](C(=O)N(CC2CC2)c2cccc(C3(C(F)(F)F)CC3)c2)[C@H]2CC(F)(F)CN2[C@]12C(=O)Nc1c(Cl)cc(Cl)cc12 [Example 189] |  |  | ++ (NAUC “++” refers to an observed NAUC 170-140% of positive control) | + (NAUC “+” refers to an observed NAUC <140% of positive control) |  |
| CC(C)(C)CN(C(=O)[C@H]1[C@@H](C(=O)O)C2(C(=O)Nc3c(Cl)cc(Cl)cc32)N2CC(C)(C)C[C@@H]12)c1cc(Cl)cc(Cl)c1 (single isomer, unassigned) [Example 274.6b, (1′S,2′R,7a′S)-5,7-dichloro-1′-((3,5-dichlorophenyl)(neopentyl)carbamoyl)-6′,6′-dimethyl-2-oxo-1′,2′,5′,6′,7′,7a′-hexahydrospiro[indoline-3,3′-pyrrolizine]-2′-carboxylic acid] |  |  | +++ (NAUC “+++” refers to an observed NAUC>170% of positive control) | ++ (NAUC “++” refers to an observed NAUC 170-140% of positive control) | Nauc @ 10 μM [6]: + (NAUC “+” refers to an observed NAUC <140% of positive control) |
| O=C(Nc1cc(Cl)cc(Cl)c1)C1CN(S(=O)(=O)CCc2ccccc2)C2(C(=O)Nc3c(Cl)cc(Cl)cc32)C1C(=O)O (stereo not drawn) [Example 25] | + (NAUC “+” refers to an observed NAUC <140% of positive control) | ++ (NAUC “++” refers to an observed NAUC 170-140% of positive control) |  |  |  |
| CC(C)(C)CN(C(=O)[C@H]1[C@H]2C[C@](C)(O)CN2[C@]2(C(=O)Nc3c(Cl)cc(Cl)cc32)[C@H]1C(=O)O)c1cc(Cl)cc(Cl)c1 [Example 91, (1′R,2′S,3R,6′S,7a′R)-5,7-dichloro-1′-((3,5-dichlorophenyl)(neopentyl)carbamoyl)-6′-hydroxy-6′-methyl-2-oxo-1′,2′,5′,6′,7′,7a′-hexahydrospiro[indoline-3,3′-pyrrolizine]-2′-carboxylic acid] |  |  | ++ (NAUC “++” refers to an observed NAUC 170-140% of positive control) | ++ (NAUC “++” refers to an observed NAUC 170-140% of positive control) |  |
| CC(C)(C)CCN(C(=O)[C@H]1[C@H]2CC(F)(F)CN2[C@]2(C(=O)Nc3c(Cl)cc(Cl)cc32)[C@H]1C(=O)O)c1cc(Cl)cc(Cl)c1 [Example 182] |  |  | +++ (NAUC “+++” refers to an observed NAUC>170% of positive control) | ++ (NAUC “++” refers to an observed NAUC 170-140% of positive control) |  |
| O=C(Nc1cc(Cl)cc(Cl)c1)C1C2C[C@@](O)(C(F)(F)F)CN2C2(C(=O)Nc3c(Cl)cc(Cl)cc32)C1C(=O)O (stereo partly drawn) [Example 56] | +++ (NAUC “+++” refers to an observed NAUC>170% of positive control) | +++ (NAUC “+++” refers to an observed NAUC>170% of positive control) |  |  |  |
| NC(=O)[C@H]1[C@@H](C(=O)Nc2cc(Cl)cc(Cl)c2)[C@H]2CC(F)(F)CN2[C@]12C(=O)Nc1c(Cl)cc(Cl)cc12 [Example 228, (1′R,2′S,3R,7a′R)-5,7-dichloro-N1′-(3,5-dichlorophenyl)-6′,6′-difluoro-2-oxo-1′,2′,5′,6′,7′,7a′-hexahydrospiro[indoline-3,3′-pyrrolizine]-1′,2′-dicarboxamide] | + (NAUC “+” refers to an observed NAUC <140% of positive control) | + (NAUC “+” refers to an observed NAUC <140% of positive control) |  |  | Nauc @ 1 μM [5]: + (NAUC “+” refers to an observed NAUC <140% of positive control) |
| O=C(Nc1cccc2c1OCCO2)[C@H]1[C@H]2CC(F)(F)CN2[C@]2(C(=O)Nc3c(Cl)cc(Cl)cc32)[C@H]1C(=O)O [Example 129] | + (NAUC “+” refers to an observed NAUC <140% of positive control) |  |  |  | Nauc @ 1 μM [5]: + (NAUC “+” refers to an observed NAUC <140% of positive control) |
| CN(C(=O)[C@H]1[C@H]2CC(F)(F)CN2[C@]2(C(=O)N(CC3CC3)c3c(Cl)cc(Cl)cc32)[C@H]1C(=O)O)c1cc(Cl)cc(Cl)c1 [Example 201] |  |  | + (NAUC “+” refers to an observed NAUC <140% of positive control) | + (NAUC “+” refers to an observed NAUC <140% of positive control) |  |
| O=C(O)[C@H]1[C@@H](C(=O)N(CC2(C(F)(F)F)CC2)c2cc(Cl)cc(Cl)c2)[C@H]2CC(F)(F)CN2[C@]12C(=O)Nc1c(Cl)cc(Cl)cc12 [Example 155] |  |  | +++ (NAUC “+++” refers to an observed NAUC>170% of positive control) | +++ (NAUC “+++” refers to an observed NAUC>170% of positive control) | Nauc @ 10 μM [6]: + (NAUC “+” refers to an observed NAUC <140% of positive control) |
| O=C(Nc1cc(Cl)cc(Cl)c1)C1C(C(F)(F)c2cccc(C(F)(F)F)c2)NC2(C(=O)Nc3c(Cl)cc(Cl)cc32)C1C(=O)O (stereo not drawn) [Example 70.b] |  | + (NAUC “+” refers to an observed NAUC <140% of positive control) |  |  |  |
